Test results as given in article PMC9102668, “Highly Cytotoxic Osmium(II) Compounds and Their Ruthenium(II) Analogues Targeting Ovarian Carcinoma Cell Lines and Evading Cisplatin Resistance Mechanisms” (International Journal of Molecular Sciences, 2022).

Assays:
A2780cis = assay: MTT assay (CellTiter96), cytotoxic activity; assay type: cell-based; conditions: for RF A2780 (resistance factor): A2780cis vs A2780; for IC50: Cisplatin resistant A2780, MTT assay, 48 h incubation
Experimental: (§1) The biological behaviour of all substances was characterized by their cytotoxic activity against a panel of cell lines enabling an understanding of the structure-activity relationship. Cytotoxic activity was determined on ovarian carcinoma cell lines SKOV3 and A2780 as well as their Cisplatin resistant analogues (SKOV3cis and A2780cis) and the lung carcinoma cell line A549. Due to a low solubility in water, dmso is used as a solvent for the preparation of a dilution series in cell culture experiments. The toxic influence of dmso was determined earlier and experiments were carried out with 0.5% dmso in cell culture media and this concentration was used as reference sample in each MTT assay (details: Section 3). […] Resistance factors (RF) were determined for all substances (for IC50 values and RF of β-Hydroxydithiocinnamic acid esters L1–L18, see Tables S2 and S3, Supplementary part). All investigated ruthenium(II) compounds show lower RF values than Cisplatin on ovarian carcinoma cell lines, ranging from 0.2 to 1.5 (Table 3). Whereas the IC50 values on the non-resistant cell lines are in most cases higher than the IC50 of the reference substance, no increase of IC50 values is observed for the resistant cell lines. Contrary, eight ruthenium complexes show lower IC50 values on SKOV3cis than Cisplatin and four compounds on A2780cis. Thus, it can be concluded that these compounds are able to bypass the Cisplatin resistance mechanism in these cell lines pointing to a different mechanism of action.
(§2) Ovarian cancer cell lines were cultured under standard conditions (5% CO2, 37 °C, 90% humidity) in RPMI medium supplemented with 10% FCS, 100 U/mL penicillin and 100 µg/mL streptomycin (Life Technologies, Dreieich, Germany). Cisplatin (Sigma, Taufkirchen, Germany) was freshly dissolved at 1 mg/mL in 0.9% NaCl solution and diluted appropriately. New ruthenium(II) complexes and ligands were dissolved in dmso. Platinum-resistant A2780 and SKOV3 cells were established by repeated rounds of 3-day incubations with increasing amounts of Cisplatin starting with 0.1 µM. The concentration was doubled after 3 incubations, interrupted by recovery phases with normal medium. […] Determinations of IC50 values were carried out using the CellTiter96 non-radioactive proliferation assay (MTT assay, Promega, Mannheim, Germany). After seeding 5000 cells per well in a 96-well plate, cells were allowed to attach for 24 h and were incubated for 48 h with different concentrations of the substances ranging from 0 to 500 µM for Ruthenium and 0 to 1000 µM for ligand tests (0, 1, 10, 50, 100, 500, 1000 µm), for Cisplatin from 0 to 100 µM (0.1, 1, 5, 10, 50, 100 µM). Each measurement was done in triplicate and repeated 3 times. The proportion of viable cells was quantified by the MTT assay and after background subtraction relative values compared to the mean of medium controls were calculated. Non-linear regression analyses applying the Hill slope were run in GraphPad 5.0 software.

SKOV3 = assay: MTT assay (CellTiter96), cytotoxic activity; assay type: cell-based; conditions: 48 h incubation
Experimental: as §1, §2

A2780 = assay: MTT assay (CellTiter96), cytotoxic activity; assay type: cell-based; conditions: 48 h incubation
Experimental: as §1, §2

SKOV3cis = assay: MTT assay (CellTiter96), cytotoxic activity; assay type: cell-based; conditions: for IC50: Cisplatin resistant SKOV3, MTT assay, 48 h incubation; for RF SKOV3 (resistance factor): SKOV3cis vs SKOV3
Experimental: as §1, §2

A549 = assay: MTT assay (CellTiter96), cytotoxic activity; assay type: cell-based; conditions: lung carcinoma cell line, 48 h incubation
Experimental: as §1, §2

histone γH2AX-foci = assay: γH2AX foci analysis (DNA damage); assay type: cell-based; conditions: IC50 concentration, 24h incubation
Source text: ROS production may also lead to endoplasmatic reticulum stress-induced apoptosis. In general, many ruthenium(II) complexes with different ligands induce intracellular ROS [94, 95, 96, 97, 98, 99]. Moreover, the cytotoxic activity of Os(II) compounds can be inhibited by vitamin E co-treatment pointing to the contribution of ROS [88]. In addition to mitochondrial dysfunction, Ru(II) complexes may affect glycolysis or topoisomerase I/II, thus inducing necroptosis. Ru(II) compounds with modified pyrithione ligands were recently described to overcome platinum resistance in ovarian cancer cells by inducing cytostatic G1 arrest, TrxR inhibition, and cell membrane damage. […] Future studies may identify the specific target proteins enabling molecular docking studies and specific refinement of the organo-metal compound structure. Altogether, presented compounds may use some of these alternative modes of action as well, as we see efficient cell death but no cell cycle arrest induction by Ru3/Ru14. Furthermore, the ruthenium(II) core atom might be responsible for this effect because of the lack of anticancer behaviour of the ligand L14 (Supplementary Figure S8). To further confirm that Ru compounds use another mechanism of action, DNA damage analyses were conducted for Ru3 and Ru14 (Figure 8). […]

[1] = system: A2780 and SKOV3 cells and the resistant subcultures; assay: Cell cycle distribution, PI staining and FACS; assay type: cell-based; conditions: 48 h treatment, 24 h recovery
Experimental: The reduced viability under treatment, as measured by the MTT assay, can be a result of cell cycle arrest and/or increased cell death. To further evaluate the anticancer properties of the ruthenium(II) complexes we measured cell cycle distribution and cell death rates after treatment with Ru3 or Ru14. After seeding and attaching, the cells were treated for 48 h with different concentrations of substances. For cell cycle distribution measurements, a recovery phase of 24 h was added after treatment, and cells were fixed and stained with PI for the DNA content. Arresting of cells in specific cell cycle phases gives them time to resolve the DNA damage (G1 arrest) or is an initial step to apoptosis if DNA damage is too severe (G2/M arrest).
(§3) To examine cell cycle distribution and cell death rates, 30,000 cells were seeded in 12 well plates. After attaching for 24 h cells were treated with Cisplatin, Ru3 and Ru14 for 48 h at various concentrations for cell cycle and cell death analyses. For cell death analysis, immediately after treatment cells were stained with Propidium Iodid (PI) (1 µg/mL) on ice and the number of dead cells was measured using BD Canto II. For cell cycle distribution, cells recovered for 24 h after treatment. Afterwards, cells were fixed in ice-cold, 50% EtOH for 24 h at −20 °C. For DNA staining, fixed cells were incubated in PBS with 0.05% Triton-X, 0.1 µg/mL RNaseA and 50 µg/mL PI for 1 h at 4 °C in dark. DNA content was measured using BD Canto II.

A2780 cells = assay: Cell death rate, PI staining of live cells (FACS); assay type: cell-based; conditions: 48 h
Experimental: (§4) For cell death rate analysis, live cells were stained with PI immediately after 48 h treatment. […] Furthermore, resistant cells show much lower Cisplatin-induced cell death rates (Figure 7). […] In A2780 cells, both compounds trigger similar cell death rates in parental and Cisplatin-resistant cells. Cisplatin-resistant SKOV3 are much more sensitive to both ruthenium(II) complexes than the parental counterpart, with a median of 3.3-fold higher sensitivity.
as §3

[2] = system: Cisplatin resistant cell lines; assay: Mean IC50 (MTT assay) on Cisplatin resistant cell lines; assay type: cell-based
Experimental: Thus, it can be concluded that the biological activity is mediated by a longer chain (butoxy) at the meta-position, whereas the ortho- and para-positions are more suitable with a shorter chain (ethoxy). To have a further look at the influence of the different ligand systems and substitution patterns, all β-Hydroxydithiocinnamic acid alkyl esters were tested under same conditions as their derived ruthenium(II) complexes (Figure 5B, Supplementary Table S3). […] All ligands are less cytotoxic than Cisplatin itself and therefore the metal(II) center is necessary for the high cytotoxic activity, what is in clear contrast to the literature for O,S-chelating ruthenium(II) or osmium(II) compounds with thiomaltol ligand [48, 71] but confirmed for Ru(II)/Os(II) compounds with N,N-bidentate glycosyl heterocyclic ligands. This is exemplarily shown by the comparison of mean IC50 values for Cisplatin, L14, and Ru14 (Supplementary Figure S8).
as §2

[3] = Stability determination via 1H NMR spectroscopy; assay type: physicochemical
Experimental: To investigate the behaviour of the ruthenium(II) complexes Ru1, Ru3, and Ru8 in solution, we analysed kinetic measurements via ^1H NMR spectroscopy (every 1 h, one spectra). NMR signals and behaviour of the ruthenium and osmium compounds is similar, but osmium(II) compounds show a slower ligand exchange mechanism and a higher stability in general. […] The same measurements were done also with dmso at room temperature. Similar changes in the spectra occur at room temperature and new species are detectable (exemplified for Ru1 in the Supplementary Figure S3). However, slower speciation processes in comparison to 37 °C measurements occur, which is exemplarily represented by the disappearance of the double-doublets of the cymene ligand after 29 h (rt, Supplementary Figure S3) vs. 5 h (37 °C, Supplementary Figure S2). As reported earlier, dmso molecules are able to bind to the ruthenium(II) center by losing the cymene ligand and changing the structure to an octahedral metal(II) coordination sphere. Thus, an explanation for the new species can be the binding of dmso molecules to the ruthenium(II) center after loss of the cymene ligand representing the new species in the ^1H NMR spectra. To support this hypothesis, the ruthenium(II) complexes were measured under same conditions (rt, 72 h) in CD2Cl2, and it was shown that the compounds are stable under these conditions in the other solvent (see Supplementary Figure S4).
NMR spectra were measured via NMR spectroscopy on Bruker Avance 400 MHz. Substances were solved in dmso-d6 or CD2Cl2 and measured directly at 37 °C or room temperature for 72 h. NS = 128 scans, t = 709 s/2891 s break, 72 measurements.

MCF10A = assay: IC50 on non-cancerous cell cultures; assay type: cell-based; conditions: non-cancerous breast epithelial cell line
Keratinocytes = assay: IC50 on non-cancerous cell cultures; assay type: cell-based; conditions: normal primary short-term cell culture
Fibroblasts = assay: IC50 on non-cancerous cell cultures; assay type: cell-based; conditions: normal primary short-term cell culture
SKOV3 cells = assay: Cell death rate, PI staining of live cells (FACS); assay type: cell-based; conditions: parental SKOV3, 15 µM, 48 h
Experimental: as §4, §3

Compound | RF A2780 (resistance factor) (A2780cis) | IC50 (A2780cis) [µM] | IC50 (SKOV3) [µM] | IC50 (A2780) [µM] | IC50 (SKOV3cis) [µM] | RF SKOV3 (resistance factor) (SKOV3cis) | IC50 (A549) [µM] | IC50 (MCF10A) [µM] | IC50 (Keratinocytes) [µM] | IC50 (Fibroblasts) [µM] | other results
CSC(=S)C=C([O][Ru][Cl])c1cccc(O)c1.Cc1ccc(C(C)C)cc1 [Ru3, [(η^6-p-cymene)Ru(1-(3-hydroxyphenyl)-3-(methylthio)-3-thioxo-prop-1-en-1-olate-O,S)Cl]] | 0.9 | 7.4 | 18.9 | 8.7 | 12.1 | 0.6 | 8 |  |  |  | γH2AX-foci induction (histone γH2AX-foci): less γH2AX-foci as Cisplatin; effect on cell cycle distribution [1]: no or only a minor effect on cell cycle distribution; capacity to induce cell death in vitro (A2780 cells; A2780 and SKOV3 cells, 20 µM and 30 µM): high capacity to induce cell death; mean IC50 value on Cisplatin resistant cell lines compared with Cisplatin [2]: lower
[(n^6-p-cymene)Ru(1-phenyl-3-(methylthio)-3-thioxo-prop-1-en-1-olate-O,S)Cl] [Ru1] | 0.75 | 9.6 | 34.7 | 12.8 | 18.4 | 0.5 | 28.8 |  |  |  | disappearance of the double-doublets of the cymene ligand ([3]; dmso, rt): 29 h; disappearance of the double-doublets of the cymene ligand ([3]; dmso-d6, 37 °C): 5 h; loss of the methine proton signal ([3]; dmso-d6, 37 °C): 7 h
[(η^6-p-cymene)Os(1-(3-hydroxyphenyl)-3-(ethylthio)-3-thioxo-prop-1-en-1-olate-O,S)Cl] [Os3] | 1 | 0.4 | 1.1 | 0.4 | 2.3 | 2.1 | 0.7 | 21.3 | 84.5 | > 100 | stability determination using NMR spectroscopy ([3]; osmium(II) compounds): no structural changes
cis-[Pt(NH3)2Cl2] [Cisplatin] | 4.7 | 6.1 | 3.8 | 1.3 | 13.5 | 3.6 | 7.6 | 3.3 | 5.7 | 4.1 | effect on cell cycle distribution ([1]; 5 µM, parental A2780 and SKOV3 cells): cell cycle arrest in G2/M phase; cell death compared to untreated cells (SKOV3 cells): 6.3 fold; cell death compared to untreated cells (A2780 cells; parental A2780, 15 µM, PI staining): 29.9 fold
